Test results taken from EP0025288A1, “Derivatives of monic acid, processes for their preparation, compositions containing them and their preparation” (priority 1979, dated 1981).

Key:
Assay type in all cases: cell-based
E coli NCTC 10418 [1] = experiment: MIC, human bacteria, serial dilution in nutrient agar; details: nutrient agar containing 5% 'chocolated' horse blood
M. suipneumoniae UCD 1 = experiment: MIC, anti-mycoplasmal, Friis broth solidified with 0.9% agarose; details: inoculum 10^3 to 10^5 C.F.U., 6 days incubation at 37°C
Bord bronchisptica BO9 = experiment: MIC, veterinary bacteria; details: veterinary bacteria (Table 2)
M. pneumoniae ATCC 15492 = experiment: MIC, anti-mycoplasmal, Friis broth solidified with 0.9% agarose; details: inoculum 10^3 to 10^5 C.F.U., 6 days incubation at 37°C
Ps aeruginosa 10662 = experiment: MIC, human bacteria, serial dilution in nutrient agar; details: nutrient agar containing 5% 'chocolated' horse blood
Bacillus subtilis 6633 = experiment: as above; details: nutrient agar containing 5% 'chocolated' horse blood
[2] = tested on: Corynebacterium pyogenes CY1; experiment: MIC, veterinary bacteria; details: veterinary bacteria (Table 2)
[3] = tested on: M. suipneumoniae ATCC 25095; experiment: MIC, anti-mycoplasmal, Friis broth solidified with 0.9% agarose; details: inoculum 10^3 to 10^5 C.F.U., 6 days incubation at 37°C
[4] = tested on: Haemophilus influenzae Wy21; experiment: MIC, human bacteria, serial dilution in nutrient agar; details: nutrient agar containing 5% 'chocolated' horse blood
M. gallisepticum S6 = experiment: MIC, anti-mycoplasmal, Friis broth solidified with 0.9% agarose; details: inoculum 10^3 to 10^5 C.F.U., 6 days incubation at 37°C
Staph aureus Russell = experiment: MIC, human bacteria, serial dilution in nutrient agar; details: nutrient agar containing 5% 'chocolated' horse blood
M. dispar NCTC 10125 = experiment: MIC, anti-mycoplasmal, Friis broth solidified with 0.9% agarose; details: inoculum 10^3 to 10^5 C.F.U., 6 days incubation at 37°C
M. suipneumoniae MS 16 = experiment: as above; details: inoculum 10^3 to 10^5 C.F.U., 6 days incubation at 37°C
Past Haemolytica PA5 = experiment: MIC, veterinary bacteria; details: veterinary bacteria (Table 2)
[5] = tested on: Staph aureus 152 (pen sens); experiment: MIC, veterinary bacteria; details: veterinary bacteria (Table 2)
M. suipneumoniae HK(2) = experiment: MIC, anti-mycoplasmal, Friis broth solidified with 0.9% agarose; details: inoculum 10^3 to 10^5 C.F.U., 6 days incubation at 37°C
Strep agalactiae SPA1 = experiment: MIC, veterinary bacteria; details: veterinary bacteria (Table 2)
[6] = tested on: Staph aureus B4 (pen resis); experiment: MIC, veterinary bacteria; details: veterinary bacteria (Table 2)
M. hyorhinis ATCC 25021 = experiment: MIC, anti-mycoplasmal, Friis broth solidified with 0.9% agarose; details: inoculum 10^3 to 10^5 C.F.U., 6 days incubation at 37°C
[7] = tested on: Corynebacterium zerosis 9755; experiment: MIC, human bacteria, serial dilution in nutrient agar; details: nutrient agar containing 5% 'chocolated' horse blood
M. hyorhinis ATCC 23234 = experiment: MIC, anti-mycoplasmal, Friis broth solidified with 0.9% agarose; details: inoculum 10^3 to 10^5 C.F.U., 6 days incubation at 37°C
Staph aureus W2827 = experiment: MIC, human bacteria, serial dilution in nutrient agar; details: nutrient agar containing 5% 'chocolated' horse blood
M. suipneumoniae Str. 11 = experiment: MIC, anti-mycoplasmal, Friis broth solidified with 0.9% agarose; details: inoculum 10^3 to 10^5 C.F.U., 6 days incubation at 37°C
[8] = tested on: M. suipneumoniae J2206/183b; experiment: as above; details: inoculum 10^3 to 10^5 C.F.U., 6 days incubation at 37°C
K aerogenes A = experiment: MIC, human bacteria, serial dilution in nutrient agar; details: nutrient agar containing 5% 'chocolated' horse blood
M. suipneumoniae NB12 = experiment: MIC, anti-mycoplasmal, Friis broth solidified with 0.9% agarose; details: inoculum 10^3 to 10^5 C.F.U., 6 days incubation at 37°C
[9] = tested on: Erysipelothrix rhusiopathiae NCTC 8163; experiment: MIC, veterinary bacteria; details: veterinary bacteria (Table 2)
Strep pyogenes C 641848 = experiment: MIC, human bacteria, serial dilution in nutrient agar; details: Strep pyogenes C 641848 (footnote c); nutrient agar containing 5% 'chocolated' horse blood
M. suipneumoniae LABER = experiment: MIC, anti-mycoplasmal, Friis broth solidified with 0.9% agarose; details: inoculum 10^3 to 10^5 C.F.U., 6 days incubation at 37°C
[10] = tested on: Strep suis (group D) SPS11; experiment: MIC, veterinary bacteria; details: veterinary bacteria (Table 2)
[11] = tested on: M. bovigenitalium ATCC 14173; experiment: MIC, anti-mycoplasmal, Friis broth solidified with 0.9% agarose; details: inoculum 10^3 to 10^5 C.F.U., 6 days incubation at 37°C
Strep dysgalaciae SPD1 = experiment: MIC, veterinary bacteria; details: veterinary bacteria (Table 2)
E coli ESS = experiment: MIC, human bacteria, serial dilution in nutrient agar; details: nutrient agar containing 5% 'chocolated' horse blood
M. suipneumoniae JF 435 = experiment: MIC, anti-mycoplasmal, Friis broth solidified with 0.9% agarose; details: inoculum 10^3 to 10^5 C.F.U., 6 days incubation at 37°C
E coli NCTC 10418 [12] = experiment: MIC, veterinary bacteria; details: veterinary bacteria (Table 2)
Strep pyogenes A R80/421 = experiment: MIC, human bacteria, serial dilution in nutrient agar; details: Strep pyogenes A R80/421 (footnote b); nutrient agar containing 5% 'chocolated' horse blood
[13] = tested on: M. hyosynoviae ATCC 25591; experiment: MIC, anti-mycoplasmal, Friis broth solidified with 0.9% agarose; details: inoculum 10^3 to 10^5 C.F.U., 6 days incubation at 37°C
Past multocida PA1 = experiment: MIC, veterinary bacteria; details: veterinary bacteria (Table 2)
Strep uberis SPU1 = experiment: MIC, veterinary bacteria; details: veterinary bacteria (Table 2)
S dublin S7 = experiment: MIC, veterinary bacteria; details: veterinary bacteria (Table 2)
M. bovis NCTC 10131 = experiment: microbe, parasite or virus in culture; details: M. bovis NCTC 10131; inoculum 10^3 to 10^5 C.F.U., 6 days incubation at 37°C
[14] = tested on: M. suipneumoniae PW/C/210; experiment: MIC, anti-mycoplasmal, Friis broth solidified with 0.9% agarose; details: inoculum 10^3 to 10^5 C.F.U., 6 days incubation at 37°C
Staph aureus Oxford [15] = experiment: MIC, human bacteria, serial dilution in nutrient agar; details: nutrient agar containing 5% 'chocolated' horse blood
M. suipneumoniae TAM 6N = experiment: MIC, anti-mycoplasmal, Friis broth solidified with 0.9% agarose; details: inoculum 10^3 to 10^5 C.F.U., 6 days incubation at 37°C
Strep pneumoniae CN33 = experiment: MIC, human bacteria, serial dilution in nutrient agar; details: nutrient agar containing 5% 'chocolated' horse blood
[16] = tested on: Pasteurella multocida 1633; experiment: as above; details: nutrient agar containing 5% 'chocolated' horse blood
[17] = tested on: Neisseria catarrhalis 1502; experiment: as above; details: Neisseria catarrhalis 1502 (footnote a); nutrient agar containing 5% 'chocolated' horse blood
Staph aureus Oxford [18] = experiment: MIC, veterinary bacteria; details: veterinary bacteria (Table 2)
S typhimurium S18 = experiment: MIC, veterinary bacteria; details: veterinary bacteria (Table 2)
P mirabilis 889 = experiment: MIC, human bacteria, serial dilution in nutrient agar; details: nutrient agar containing 5% 'chocolated' horse blood
E coli E1 = experiment: MIC, veterinary bacteria; details: veterinary bacteria (Table 2)
Strep faecalis I = experiment: MIC, human bacteria, serial dilution in nutrient agar; details: nutrient agar containing 5% 'chocolated' horse blood
Past multocida PA2 = experiment: MIC, veterinary bacteria; details: veterinary bacteria (Table 2)
[19] = tested on: M. suipneumoniae NCTC 10110; experiment: MIC, anti-mycoplasmal, Friis broth solidified with 0.9% agarose; details: inoculum 10^3 to 10^5 C.F.U., 6 days incubation at 37°C
Strep pyogenes B 2788 = experiment: MIC, human bacteria, serial dilution in nutrient agar; details: nutrient agar containing 5% 'chocolated' horse blood
Bord bronchiseptica BO8 = experiment: MIC, veterinary bacteria; details: veterinary bacteria (Table 2)

Cyclohexan-4-onyl monate A [Example 8]
MIC (E coli NCTC 10418 [1]): >100 µm/ml
in vitro MIC (M. suipneumoniae UCD 1): 0.5 µg/mL
MIC (Bord bronchisptica BO9): 20 µg/mL
in vitro MIC (M. pneumoniae ATCC 15492): 1.0 µg/mL
MIC (Ps aeruginosa 10662): >100 µm/ml
MIC (Bacillus subtilis 6633): 0.5 µm/ml
MIC [2]: >80 µg/mL
in vitro MIC [3]: 0.25 µg/mL
MIC [4]: 0.1 µm/ml
in vitro MIC (M. gallisepticum S6): 5.0 µg/mL
MIC (Staph aureus Russell): 2.5 µm/ml
in vitro MIC (M. dispar NCTC 10125): 0.1 µg/mL
in vitro MIC (M. suipneumoniae MS 16): 0.25 µg/mL
MIC (Past Haemolytica PA5): 5 µg/mL
MIC [5]: 1.25 µg/mL
in vitro MIC (M. suipneumoniae HK(2)): 0.5 µg/mL
MIC (Strep agalactiae SPA1): .625 µg/mL
MIC [6]: 2.5 µg/mL
in vitro MIC (M. hyorhinis ATCC 25021): 0.25 µg/mL
MIC [7]: >100 µm/ml
in vitro MIC (M. hyorhinis ATCC 23234): 0.25 µg/mL
MIC (Staph aureus W2827): 2.5 µm/ml
in vitro MIC (M. suipneumoniae Str. 11): 0.25 µg/mL
in vitro MIC [8]: 0.5 µg/mL
MIC (K aerogenes A): >100 µm/ml
in vitro MIC (M. suipneumoniae NB12): 0.25 µg/mL
MIC [9]: 10 µg/mL
MIC (Strep pyogenes C 641848): ^c0.5 µm/ml
in vitro MIC (M. suipneumoniae LABER): 0.25 µg/mL
MIC [10]: 2.5 µg/mL
in vitro MIC [11]: 0.025 µg/mL
MIC (Strep dysgalaciae SPD1): .156 µg/mL
MIC (E coli ESS): 0.5 µm/ml
in vitro MIC (M. suipneumoniae JF 435): 0.5 µg/mL
MIC (E coli NCTC 10418 [12]): >80 µg/mL
MIC (Strep pyogenes A R80/421): ^b0.5 µm/ml
in vitro MIC [13]: 0.1 µg/mL
MIC (Past multocida PA1): .312 µg/mL
MIC (Strep uberis SPU1): .312 µg/mL
MIC (S dublin S7): >80 µg/mL
in vitro MIC (M. bovis NCTC 10131): 0.025 µg/mL
in vitro MIC [14]: 0.25 µg/mL
MIC (Staph aureus Oxford [15]): 1.0 µm/ml
in vitro MIC (M. suipneumoniae TAM 6N): 0.5 µg/mL
MIC (Strep pneumoniae CN33): 0.5 µm/ml
MIC [16]: 0.5 µm/ml
MIC [17]: ^a0.5 µm/ml
MIC (Staph aureus Oxford [18]): 1.25 µg/mL
MIC (S typhimurium S18): >80 µg/mL
MIC (P mirabilis 889): 100 µm/ml
MIC (E coli E1): >80 µg/mL
MIC (Strep faecalis I): 25.0 µm/ml
MIC (Past multocida PA2): .156 µg/mL
in vitro MIC [19]: 0.5 µg/mL
MIC (Strep pyogenes B 2788): 0.5 µm/ml
MIC (Bord bronchiseptica BO8): 80 µg/mL
